# How the values were obtained:
# Format in all cases: cell-based
# [1] = test system: HOP-92; test: NCI antitumor screen (SRB); settings: Homo sapiens, five concentrations 0.01-100 µM
# [2] = test system: leukaemia tumour cell lines; test: NCI antitumor screen, subpanel
# [3] = test system: NSC lung cancer tumour cell lines; test: NCI antitumor screen, subpanel
# [4] = test system: colon cancer tumour cell lines; test: NCI antitumor screen, subpanel
# [5] = test system: CNS cancer tumour cell lines; test: NCI antitumor screen, subpanel
# [6] = test system: melanoma tumour cell lines; test: NCI antitumor screen, subpanel
# [7] = test system: ovarian cancer tumour cell lines; test: NCI antitumor screen, subpanel
# [8] = test system: renal cancer tumour cell lines; test: NCI antitumor screen, subpanel
# [9] = test system: prostate cancer tumour cell lines; test: NCI antitumor screen, subpanel
# [10] = test system: breast cancer tumour cell lines; test: NCI antitumor screen, subpanel
# [11] = Homo sapiens, five concentrations
# [12] = Homo sapiens, read-out: LC50 (subpanel average)
structure (smiles),measurement,setting,value
CCN(CC)c1ccc(/C=N/NC(=O)c2ccc(S(C)(=O)=O)cc2)c(O)c1 [Compound 20],GI50,[1],491 nM
same,TGI (subpanel average),[2],83500 nM
same,GI50,[2]; [11],230 nM
same,CC50,[2]; [12],> 100000 nM
same,TGI (subpanel average),[3],65000 nM
same,GI50,[3]; [11],260 nM
same,CC50,[3]; [12],> 100000 nM
same,TGI (subpanel average),[4],c (Compounds showed values ≥ 100 µM)
same,GI50,[4]; [11],270 nM
same,CC50,[4]; [12],> 100000 nM
same,TGI (subpanel average),[5],71700 nM
same,GI50,[5]; [11],220 nM
same,CC50,[5]; [12],> 100000 nM
same,TGI (subpanel average),[6],45600 nM
same,GI50,[6]; [11],310 nM
same,CC50,[6]; [12],> 100000 nM
same,TGI (subpanel average),[7],70000 nM
same,GI50,[7]; [11],1100 nM
same,CC50,[7]; [12],> 100000 nM
same,TGI (subpanel average),[8],80300 nM
same,GI50,[8]; [11],1400 nM
same,CC50,[8]; [12],> 100000 nM
same,TGI (subpanel average),[9],c (Compounds showed values ≥ 100 µM)
same,GI50,[9]; [11],230 nM
same,CC50,[9]; [12],> 100000 nM
same,TGI (subpanel average),[10],69500 nM
same,GI50,[10]; [11],2200 nM
same,CC50,[10]; [12],> 100000 nM
